Test results published in patent US8580763B2, “2, 6-dinitrogen-containing substituted purine derivatives, the preparation and uses thereof” (Zhanggui Wu, priority 2007, dated 2013).
pIC50: −log10 of the molar value.

What was measured:
colon cancer HT-29 = experiment: anticancer activity in vitro (SRB, MTT), colon cancer HT-29; assay type: cell-based; settings: Homo sapiens, action time about 72 h
Experimental: (§1) Antitumor activity tests in vitro and in vivo are carried out to the parital compounds prepared from the above examples. Wherein the method of SRB, MTT is used in vitro, and the action time is about 72 h. Inhibitory effects of the compounds on the growth of mouse Conlon26 cancer are shown in Table 2, inhibitory effects of the compounds on the growth of mouse S180 sarcoma are shown in Table 3.

[1] = tested on: human liver cancer Bel-7402; experiment: anticancer activity in vitro (SRB, MTT), human liver cancer Bel-7402; assay type: cell-based; settings: action time about 72 h
Experimental: as §1

[2] = tested on: non-small cell lung cancer; experiment: anticancer activity in vitro (SRB, MTT), non-small cell lung cancer; assay type: cell-based; settings: action time about 72 h
Experimental: as §1

lymph cancer Ramos = experiment: anticancer activity in vitro (SRB, MTT), lymph cancer Ramos; assay type: cell-based; settings: Homo sapiens, action time about 72 h
Experimental: as §1

mouse S180 sarcoma = experiment: inhibitory effects on the growth of mouse S180 sarcoma in vivo; settings: for End body weight / Inhibition rate / Tumor removed body weight / Tumor weight / Initial body weight: S180 mice; for Initial body weight: baseline
Experimental: as §1

mouse Colon26 cancer = experiment: inhibitory effects on the growth of mouse Colon26 cancer in vivo; settings: for End body weight / Inhibition rate / Tumor removed body weight / Tumor weight / Initial body weight: Colon26 mice; for Initial body weight: baseline
Experimental: as §1

[3] = tested on: four different cancer cells; experiment: antitumor activity in vitro, summary over the four cancer cells of Table 1; assay type: cell-based; settings: summary of Table 1
Experimental: as §1
Compared with compound I, compound XX has better antitumor effects.

## COc1cccc2c1C(=O)c1c(O)c3c(c(O)c1C2=O)C[C@@](O)(C(=O)CO)C[C@@H]3O[C@H]1C[C@H](N)[C@H](O)[C@H](C)O1 [ADR, adriamycin, reference compound]
Colon cancer HT-29
  pIC50: 6.42
[1]
  pIC50: 7.70
[2]
  pIC50: 7.30
Lymph cancer Ramos
  pIC50: 6.72

## O=P1(N(CCCl)CCCl)NCCCO1 (stereo not drawn) [CTX, cyclophosphamide, reference compound]
Mouse S180 sarcoma; 30 mg/kg i.p.
  End body weight: 20.31 g
  Inhibition rate: 79.82%
  Tumor removed body weight: 19.85 g
  Tumor weight: 0.46 g
  Initial body weight: 19.65 g
Mouse Colon26 cancer; 30 mg/kg i.p.
  End body weight: 20.33 g
  Inhibition rate: 78.14%
  Tumor removed body weight: 19.93 g
  Tumor weight: 0.40 g
  Initial body weight: 20.03 g

## c1cnc2ccc(Nc3nc(N4CCCC4)c4nc[nH]c4n3)cc2c1 [Compound IV]
Mouse S180 sarcoma; 100 mg/kg p.o.
  End body weight: 20.77 g
  Inhibition rate: 31.95%
  Tumor removed body weight: 19.22 g
  Tumor weight: 1.55 g
  Initial body weight: 18.99 g
Mouse S180 sarcoma; 200 mg/kg p.o.
  End body weight: 19.12 g
  Inhibition rate: 55.37%
  Tumor removed body weight: 18.10 g
  Tumor weight: 1.02 g
  Initial body weight: 19.49 g
Colon cancer HT-29
  pIC50: 6.42
[1]
  pIC50: 6.17
[2]
  pIC50: 5.64
Mouse Colon26 cancer; 100 mg/kg p.o.
  End body weight: 19.32 g
  Inhibition rate: 33.31%
  Tumor removed body weight: 18.10 g
  Tumor weight: 1.22 g
  Initial body weight: 20.09 g
Mouse Colon26 cancer; 150 mg/kg p.o.
  End body weight: 18.41 g
  Inhibition rate: 54.45%
  Tumor removed body weight: 17.57 g
  Tumor weight: 0.83 g
  Initial body weight: 20.10 g
Lymph cancer Ramos
  pIC50: 6.17
[3]
  antitumor activity to four different cancer cells (in words): the best

## C=CCNc1nc(Nc2ccc3ncccc3c2)nc2[nH]cnc12 [Compound I]
Mouse S180 sarcoma; 100 mg/kg dosage
  inhibitory effects on mouse S180 sarcoma (in words): better inhibitory effects
Mouse S180 sarcoma; 100 mg/kg p.o.
  End body weight: 18.32 g
  Inhibition rate: 68.93%
  Tumor removed body weight: 17.61 g
  Tumor weight: 0.71 g
  Initial body weight: 19.74 g
Mouse S180 sarcoma; 200 mg/kg p.o.
  End body weight: 16.04 g
  Inhibition rate: 70.21%
  Tumor removed body weight: 15.36 g
  Tumor weight: 0.68 g
  Initial body weight: 18.97 g
Colon cancer HT-29
  pIC50: 5.06
[1]
  pIC50: 5.80
[2]
  pIC50: 5.44
Mouse Colon26 cancer; 100 mg/kg dosage
  inhibitory effects on mouse Colon26 cancer (in words): better inhibitory effects
Mouse Colon26 cancer; 100 mg/kg p.o.
  End body weight: 18.15 g
  Inhibition rate: 62.25%
  Tumor removed body weight: 17.46 g
  Tumor weight: 0.69 g
  Initial body weight: 19.47 g
Mouse Colon26 cancer; 150 mg/kg p.o.
  End body weight: 17.96 g
  Inhibition rate: 76.52%
  Tumor removed body weight: 17.26 g
  Tumor weight: 0.43 g
  Initial body weight: 21.10 g
Lymph cancer Ramos
  pIC50: 5.24
[3]
  antitumor activity to four different cancer cells (in words): higher antitumor activity

## CNc1nc(Nc2ccc3ncccc3c2)nc2[nH]cnc12 [Compound VII]
Colon cancer HT-29
  pIC50: 5.40
[1]
  pIC50: 6.64
[2]
  pIC50: 5.18
Lymph cancer Ramos
  pIC50: 5.90
[3]
  antitumor activity to four different cancer cells (in words): higher antitumor activity

## C=CCN(CC=C)c1nc(Nc2ccc3ncccc3c2)nc2[nH]cnc12 [Compound XIII]
Colon cancer HT-29
  pIC50: 5.71
[1]
  pIC50: 5.46
[2]
  pIC50: 5.77
Lymph cancer Ramos
  pIC50: 5.52
[3]
  antitumor activity to four different cancer cells (in words): higher antitumor activity

## CN1CCN(c2nc(Nc3ccc4ncccc4c3)nc3[nH]cnc23)CC1 [Compound XII]
Mouse S180 sarcoma; 100 mg/kg p.o.
  End body weight: 22.58 g
  Inhibition rate: 28.19%
  Tumor removed body weight: 20.94 g
  Tumor weight: 1.63 g
  Initial body weight: 19.22 g
Mouse S180 sarcoma; 200 mg/kg p.o.
  End body weight: 21.35 g
  Inhibition rate: 46.96%
  Tumor removed body weight: 20.14 g
  Tumor weight: 1.21 g
  Initial body weight: 19.46 g
Mouse Colon26 cancer; 100 mg/kg p.o.
  End body weight: 19.16 g
  Inhibition rate: 35.18%
  Tumor removed body weight: 17.98 g
  Tumor weight: 1.19 g
  Initial body weight: 19.06 g
Mouse Colon26 cancer; 150 mg/kg p.o.
  End body weight: 18.28 g
  Inhibition rate: 50.16%
  Tumor removed body weight: 17.36 g
  Tumor weight: 0.91 g
  Initial body weight: 19.16 g

## c1cnc2ccc(Nc3nc(N4CCCCC4)c4nc[nH]c4n3)cc2c1 [Compound XIV]
Colon cancer HT-29
  pIC50: 5.65
[1]
  pIC50: 5.34
[2]
  pIC50: 5.88
Lymph cancer Ramos
  pIC50: 5.53
[3]
  antitumor activity to four different cancer cells (in words): higher antitumor activity

## CCN1CCN(c2nc(Nc3ccc4ncccc4c3)nc3[nH]cnc23)CC1 [Compound XV]
Colon cancer HT-29
  pIC50: 5.37
[1]
  pIC50: 5.26
[2]
  pIC50: 5.47
Lymph cancer Ramos
  pIC50: 5.54
[3]
  antitumor activity to four different cancer cells (in words): higher antitumor activity

## COc1cc(Nc2nc(NC3CC3)c3nc[nH]c3n2)cc2cccnc12 [Compound XXIII]
Colon cancer HT-29
  pIC50: 5.24
[1]
  pIC50: 5.23
[2]
  pIC50: 4.88
Lymph cancer Ramos
  pIC50: 5.58

## FC(F)(F)c1cc(Nc2nc(NC3CC3)c3nc[nH]c3n2)cc2cccnc12 [Compound XXIV]
Colon cancer HT-29
  pIC50: < 4.00
[1]
  pIC50: < 4.00
[2]
  pIC50: 4.93
Lymph cancer Ramos
  pIC50: < 4.00

## c1cc(Nc2nc(NC3CC3)c3nc[nH]c3n2)ccn1 [Compound XXIX]
Colon cancer HT-29
  pIC50: 4.78
[1]
  pIC50: 5.31
[2]
  pIC50: 5.12
Lymph cancer Ramos
  pIC50: 5.38

## c1cnc2ccc(Nc3nc(N4CCNCC4)c4nc[nH]c4n3)cc2c1 [Compound XXI]
Colon cancer HT-29
  pIC50: 5.56
[1]
  pIC50: 5.63
[2]
  pIC50: 5.20
Lymph cancer Ramos
  pIC50: 5.63
[3]
  antitumor activity to four different cancer cells (in words): higher antitumor activity

## c1ccc(Nc2nc(NC3CC3)c3nc[nH]c3n2)nc1 [Compound XXVIII]
Colon cancer HT-29
  pIC50: 4.09
[1]
  pIC50: 4.10
[2]
  pIC50: 4.21
Lymph cancer Ramos
  pIC50: 4.28

## Cc1cc(Nc2nc(NC3CC3)c3nc[nH]c3n2)c2ccccc2n1 [Compound XXV]
Colon cancer HT-29
  pIC50: 5.65
[1]
  pIC50: 5.28
[2]
  pIC50: 4.86
Lymph cancer Ramos
  pIC50: 5.28

## O=[N+]([O-])c1ccc(Nc2nc(NC3CC3)c3nc[nH]c3n2)cc1 [Compound XXX]
Colon cancer HT-29
  pIC50: < 4.00
[1]
  pIC50: < 4.00
[2]
  pIC50: 4.96
Lymph cancer Ramos
  pIC50: < 4.00

## CN(C)c1nc(Nc2ccc3ncccc3c2)nc2[nH]cnc12 [Compound XX]
Mouse S180 sarcoma; 100 mg/kg p.o.
  End body weight: 16.53 g
  Inhibition rate: 72.19%
  Tumor removed body weight: 15.90 g
  Tumor weight: 0.63 g
  Initial body weight: 19.96 g
Mouse S180 sarcoma; 200 mg/kg p.o.
  End body weight: 16.80 g
  Inhibition rate: 73.38%
  Tumor removed body weight: 16.20 g
  Tumor weight: 0.61 g
  Initial body weight: 19.58 g
Mouse Colon26 cancer; 100 mg/kg p.o.
  End body weight: 18.74 g
  Inhibition rate: 72.31%
  Tumor removed body weight: 18.23 g
  Tumor weight: 0.51 g
  Initial body weight: 19.64 g
Mouse Colon26 cancer; 150 mg/kg p.o.
  End body weight: 18.68 g
  Inhibition rate: 79.47%
  Tumor removed body weight: 18.31 g
  Tumor weight: 0.38 g
  Initial body weight: 19.90 g

## CC(CO)Nc1nc(Nc2ccc3ncccc3c2)nc2[nH]cnc12 (stereo not drawn) [Compound X]
Colon cancer HT-29
  pIC50: 4.62
[1]
  pIC50: 5.75
[2]
  pIC50: 4.90
Lymph cancer Ramos
  pIC50: 5.30
